According to US7919470B2, “Glycopeptide composition with improved antibiotic activity” (Xellia Pharmaceuticals APS, priority 2003, dated 2011):
Where “and” joins values, the source holds several entries; their conditions need not be identical. Identical values can stand only once.

Legend:
[1] = tested on: Staphylococcus aureus ATCC 6538; experiment: Microbiological potency by agar diffusion; format: cell-based; conditions: for Potency IU/mg powder: agar diffusion, Example 1 spiking experiments; for Potential potency IU/mg (TA2 + TA3-1): potency of the powder related to its HPLC content of TA2 + TA3-1
Procedure: Accordingly, in one embodiment a Teicoplanin composition as described herein, has a higher antibiotic activity than a corresponding Teicoplanin composition that has a % (mg TA3)/(mg TA3+TA2) of 6.5%, where the antibiotic activity is measured by a microbiological agar diffusion assay using Staphylococcus aureus ATCC 6538 as test strain and the measured potential potency (IU per mg TA2+TA3/g composition) is used to calculate the antibiotic activity.
(§1) Potency of Teicoplanin TA2, TA3-1 alone or in combination was determined by agar diffusion assays. Furthermore, the antimicrobial effect of pure and spiked products was investigated through the determination of the minimum inhibitory concentration (MIC) by a modified “MIC” test in micro titer trays.
The potency test is carried out according to the assay described below. The assay method generally corresponds to USP 25 and Ph.Eur 4th ed., but differs from both with respect to test strain and from the USP with respect to agar holes (ponds) as preferred to cylinders. The test is carried out as a 2,2 design as described in section <111> of the USP.
Stock solutions of standards and samples were prepared to approximately 900 IU/ml. The Teicoplanin standard contained approximately 25.0 mg in 4.0 ml water and buffer ad 25.0 ml. The samples of Teicoplanin compositions contained approximately 25.0 mg in 4.0 ml water and buffer ad 25.0 ml. The amount of sample was adjusted according to the actual amount of standard weighed. Finally, the standard and sample were diluted with buffer to the following concentrations:
The standard or sample was applied to the plates in accordance with an 8×8 Latin square design. Immediately after application, place the plates in the incubator at 34.0° C.±2° C., for 16-18 hours.
The results are analyzed by reading the zone diameters carefully with a 10× magnification and a precision of 0.1 mm. Statistical evaluation: for calculation and validation, follow the guidelines set out in Ph. Eur. and USP, using a computer program for all calculations.
In the spiking experiments, the amount of the investigated sample (amount of powder weighed) was reduced and replaced by a corresponding amount of spiking material or stock solutions were mixed in defined ratios.
(§2) Potency of teicoplanin TA2, TA3-1 alone or in combinations was determined by agar diffusion assays as described in example 1. Modified MIC-values in microtitre trays were determined as described in example 1.

S. aureus ATCC 6538 = experiment: Modified MIC test in micro titer trays; format: cell-based, Staphylococcus aureus; conditions: for MIC: 24 hours, 37° C.
Procedure: as §1
Pure TA3-1, (Teicoplanin Material B 96% TA2-X, 4% TA3-1) and mixtures thereof were used. The test strain used was S. aureus ATCC 6538 in final concentrations of 5×10^5/ml and 5×10^4/ml respectively. The test was carried out in micro titer trays as a modification of an ordinary MIC test. Instead of using two-fold dilutions, 0.40-1.20 μg/ml with 0.20 μl divisions and 1.0-4.0 μl/ml with 1.0 μl divisions was used. The trays were incubated at 37° C. The wells were examined after 24 hours and any visible growth was noted.
In order to strengthen the evidence some experiments were performed with a modified antimicrobial analysis of Teicoplanin, spiked with different amounts of TA3-1. It was carried out in liquid medium in contrast to the agar diffusion tests and determined the MIC values. The results are summarized in Table 4, (“MIC”-values of Teicoplanin and/or TA3-1 on S. aureus ATCC6538).
as §2

SMILES | Potency IU/mg powder [1] | Potential potency IU/mg (TA2 + TA3-1) [1] | MIC (S. aureus ATCC 6538; 5 × 10^4/ml S. aureus) [µg/mL] | MIC (S. aureus ATCC 6538; 5 × 10^5/ml S. aureus) [µg/mL] | Antimicrobial effect on S. aureus compared with Teicoplanin (S. aureus ATCC 6538; Example 1, MIC determination) | MIC value of pure TA3-1 relative to Targocid alone (S. aureus ATCC 6538; Example 2, FIG. 6, MIC in μg powder/ml solution) | Antimicrobial effect on S. aureus relative to teicoplanin TA2 (S. aureus ATCC 6538; Example 2, MIC determination) | Potency compared with Targocid ([1]; Example 2, agar diffusion)
CC(=O)N[C@H]1[C@H](O[C@@H]2c3ccc(c(Cl)c3)Oc3cc4cc(c3O[C@@H]3O[C@H](CO)[C@@H](O)[C@H](O)[C@H]3NC(=O)CCCCCCC(C)C)Oc3ccc(cc3Cl)C[C@H]3NC(=O)[C@H](N)c5ccc(O)c(c5)Oc5cc(O)cc(c5)[C@H](NC3=O)C(=O)N[C@H]4C(=O)N[C@H]3C(=O)N[C@@H]2C(=O)N[C@H](C(=O)O)c2cc(O)cc(O[C@H]4O[C@H](CO)[C@@H](O)[C@H](O)[C@@H]4O)c2-c2cc3ccc2O)O[C@H](CO)[C@@H](O)[C@@H]1O [TA2-2, Teicoplanin A2-2] | 807 IU/mg powder and 776 IU/mg powder | 1017 IU/mg (TA2 + TA3-1) and 994 IU/mg (TA2 + TA3-1) |  |  |  |  |  | 
CC(=O)N[C@H]1[C@H](O[C@@H]2c3ccc(c(Cl)c3)Oc3cc4cc(c3O)Oc3ccc(cc3Cl)C[C@H]3NC(=O)[C@H](N)c5ccc(O)c(c5)Oc5cc(O)cc(c5)[C@H](NC3=O)C(=O)N[C@H]4C(=O)N[C@H]3C(=O)N[C@@H]2C(=O)N[C@H](C(=O)O)c2cc(O)cc(O[C@H]4O[C@H](CO)[C@@H](O)[C@H](O)[C@@H]4O)c2-c2cc3ccc2O)O[C@H](CO)[C@@H](O)[C@@H]1O [TA3-1, Teicoplanin A3-1] | 570 IU/mg powder | 687 IU/mg (TA2 + TA3-1) | 2 to 3 | 2 to 3 | much lower | 4-5 times higher | 4-5 | much lower potency
